Laboratory results published in US9988430B2, “Stable GLP-1 based GLP-1/glucagon receptor co-agonists” (Novo Nordisk A/S, priority 2014, dated 2018).
pEC50, pIC50: −log10 of the molar value. *1 amine or outer side, *2 acyl side, *3 side chain or, on linkers, in order; H or OH if unused. Where a SMILES comes first, the peptide text is derived from it. Bridges are numbered along the chain shown (N, C = ends). Roman numbers before positions name the chains, in order. Side-chain parts run from the residue outwards. [ ]: non-standard residue; d: D form. The star is where a group is joined. C20 diacid = O=C(O)CCCCCCCCCCCCCCCCCCC(=O)*; C18 diacid = O=C(O)CCCCCCCCCCCCCCCCC(=O)*; γGlu = O=C(O)[C@H](CCC(=O)[*:2])N[*:1]; Desaminohistidyl = O=C(CCc1c[nH]cn1)*; Ac4c = NC1(C(=O)O)CCC1; AEEA = NCCOCCOCC(=O)O; Aib = CC(C)(N)C(=O)O

Legend:
human GLP-1 receptor [1] = target: T1, human GLP-1 receptor (Homo sapiens, UniProt P43220); assay: Assay (I)(a): GLP-1 receptor potency, CRE luciferase reporter gene assay in BHK cells; format: cell-based; conditions: BHK cells expressing human GLP-1 receptor, read-out: EC50 GLP-1R
T1 construct: expressed in transfected cells; host or cells: membranes of BHK cells, parent line BHKTS13, clone FCW467-12A
Experimental: Assay (I): GLP-1 and Glucagon Receptor Potency The purpose of this example was to test the activity or potency, of the GLP-1 derivatives of the invention, in vitro. The in vitro potency is the measure of human GLP-1 receptor (GLP-1R) or glucagon receptor (glucagonR) activation, respectively, in a whole cell assay. In vitro potency was determined by measuring the cellular response of human GLP-1 or glucagon receptor activation, respectively, in a reporter gene assay. The assay was performed in a BHK cell line that stably expresses either the human GLP-1 receptor or the human glucagon receptor and comprises the DNA for the cAMP response element (CRE) coupled to a promoter and the gene for firefly luciferase (CRE luciferase). […] When assay incubation was completed, the luciferase substrate (luciferin) was added and the enzyme converted luciferin to oxyluciferin and produces bioluminescence. The luminescence was measured as the readout for the assay. (a) GLP-1 Receptor Activation The cells used in this assay (clone FCW467-12A/KZ10-1) were BHK cells with BHKTS13 as a parent cell line. The cells were derived from a clone (FCW467-12A) that expresses the human GLP-1 receptor and were established by further transfection with CRE luciferase to obtain the current clone. The cells were cultured at 5% CO2 in DMEM medium with 10% FBS, 1×GlutaMAX, 1 mg/ml G418, 240 nM MTX (methotrexate) and 1% pen/strep (penicillin/streptomycin). They were aliquoted and stored in liquid nitrogen. Before each assay, an aliquot was taken up and washed three times in PBS before being suspended at the desired concentration in assay medium. For 96-well plates the suspension was made to give a final concentration of 5×10EE3 cells/well. The following chemicals were used in the assay: Pluronic F-68 (10%) (Gibco 2404), Ovalbumin (Sigma A5503), DMEM w/o phenol red (Gibco 11880-028), 1 M Hepes (Gibco 15630), Glutamax 100× (Gibco 35050) and steadylite plus (PerkinElmer 6016757). Assay Medium consisted of DMEM w/o phenol red, 10 mM Hepes, 1×GlutaMAX, 2% Ovalbumin and 0.2% Pluronic F-68. Cell stocks were thawed in a 37° C. water bath. Cells were washed three times in PBS. The cells were counted and adjusted to 5×10EE3 cells/50 μl (1×10EE5 cells/ml) in Assay Medium. A 50 μl aliquot of cells was transferred to each well in the assay plate. Stocks of the test compounds and reference compounds were diluted to a concentration of […] in Assay Medium. Compounds were diluted 10-fold to give the following concentrations: 2×10EE-6 M, 2×10EE-7 M, 2×10EE-8 M; 2×10EE-9 M, 2×10EE-10 M, 2×10EE-11 M, 2×10EE-12 M and 2×10EE-13 M. For each compound a blank assay medium control was also included. A 50 μl aliquot of compound or blank was transferred from the dilution plate to the assay plate. Compounds were tested at the following final concentrations: 1×10EE-6 M, 1×10EE-7 M, 1×10EE-8 M; 1×10EE-9 M, 1×10EE-10 M, 1×10EE-11 M and 1×10EE-12 M and 1×10EE-13 M. The assay plate was incubated for 3 h in a 5% CO2 incubator at 37° C. The assay plate was removed from the incubator and allowed to stand at room temperature for 15 min. A 100 μl aliquot of steadylite plus reagent was added to each well of the assay plate (reagent is light sensitive). Each assay plate was covered with aluminum foil to protect it from light and shaken for 30 min at room temperature. Each assay plate was read in a Perkin Elmer TopCount NXT instrument. The data from the TopCount instrument was transferred to GraphPad Prism software. The software performed a non-linear regression (log(agonist) vs response-Variable slope (four parameter)). EC50 values were calculated by the software and reported in pM.

human GLP-1 receptor [2] = target: T1, human GLP-1 receptor; assay: Assay (II)(a): GLP-1 receptor binding, [125I]GLP-1 displacement, SPA on BHK membranes; conditions: displacement of [125I]GLP-1, membranes with human GLP-1 receptor; read-out: IC50 GLP-1R
In short: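 Membranes from BHK cells expressing human GLP-1 receptor with WGA SPA beads, [125I]GLP-1(7-36)NH2 (480 pM added solution) and compound in HEPES pH 7.4 buffer with EGTA, MgCl2, Tween 20. Incubated 2 h at 30° C; SPA counts fitted by non-linear regression to IC50 in nM.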

T1 sequence (P43220 24-463): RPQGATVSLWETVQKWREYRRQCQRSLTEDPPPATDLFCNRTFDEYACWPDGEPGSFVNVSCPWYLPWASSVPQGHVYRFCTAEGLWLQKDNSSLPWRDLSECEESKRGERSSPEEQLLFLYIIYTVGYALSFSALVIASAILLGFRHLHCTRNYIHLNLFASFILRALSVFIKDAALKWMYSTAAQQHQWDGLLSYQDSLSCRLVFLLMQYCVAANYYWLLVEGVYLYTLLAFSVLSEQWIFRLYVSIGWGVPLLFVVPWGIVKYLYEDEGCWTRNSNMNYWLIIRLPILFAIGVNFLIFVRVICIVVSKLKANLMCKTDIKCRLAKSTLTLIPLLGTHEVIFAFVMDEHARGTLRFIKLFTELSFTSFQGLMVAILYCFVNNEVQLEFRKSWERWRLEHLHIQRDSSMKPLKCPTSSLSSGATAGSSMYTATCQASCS

| pEC50 (human GLP-1 receptor [1]) | pIC50 (human GLP-1 receptor [2]) | Compound |
| --- | --- | --- |
| 11.30 | 9.40 | CC[C@H](C)[C@H](NC(=O)[C@H](Cc1ccccc1)NC(=O)[C@H](CCC(=O)O)NC(=O)[C@H](CCCNC(=N)N)NC(=O)[C@H](C)NC(=O)[C@H](C)NC(=O)[C@H](CCC(N)=O)NC(=O)[C@H](CCC(=O)O)NC(=O)[C@H](CCC(=O)O)NC(=O)[C@H](CC(C)C)NC(=O)[C@H](Cc1ccc(O)cc1)NC(=O)[C@H](CCCCN)NC(=O)[C@H](CO)NC(=O)[C@@H](NC(=O)[C@H](CC(=O)O)NC(=O)[C@H](CO)NC(=O)[C@@H](NC(=O)[C@H](Cc1ccccc1)NC(=O)[C@@H](NC(=O)CNC(=O)[C@H](Cc1c[nH]cn1)NC(=O)C(C)(C)NC(=O)CCc1c[nH]cn1)[C@@H](C)O)[C@@H](C)O)C(C)C)C(=O)N[C@@H](C)C(=O)N[C@@H](Cc1c[nH]c2ccccc12)C(=O)N[C@@H](CC(C)C)C(=O)N[C@@H](CC(C)C)C(=O)N[C@@H](CCCCNC(=O)CNC(=O)[C@H](CO)NC(=O)[C@H](CCC(=O)O)NC(=O)CNC(=O)[C@H](CO)NC(=O)CC[C@H](NC(=O)CC[C@H](NC(=O)CCCCCCCCCCCCCCCCCCC(=O)O)C(=O)O)C(=O)O)C(=O)N[C@H](C(N)=O)[C@@H](C)O [Example 30, N^ε34-[2-[[(2S)-2-[[(2S)-4-carboxy-2-[[2-[[(2S)-2-[[(4S)-4-carboxy-4-[[(4S)-4-carboxy-4-(19-carboxynonadecanoylamino)butanoyl]amino]butanoyl]amino]-3-hydroxypropanoyl]amino]acetyl]amino]butanoyl]amino]-3-hydroxypropanoyl]amino]acetyl]-[Imp7,Aib8,His9,Lys18,Glu22,Arg26,Leu33,Thr35]-GLP-1-(7-35)-peptide amide] (I: Desaminohistidyl-[Aib]HGTFTSDVSKYLEEQAAREFIAWLLKT-NH2 / II: {C20 diacid-γGlu-γGlu}-SGESG; amide I:27-II:C) |
| 11.52 | 9.05 | CC[C@H](C)[C@H](NC(=O)[C@H](Cc1ccccc1)NC(=O)[C@H](CCC(=O)O)NC(=O)[C@H](CCCNC(=N)N)NC(=O)[C@H](C)NC(=O)[C@H](C)NC(=O)[C@H](CCC(N)=O)NC(=O)[C@H](CCC(=O)O)NC(=O)[C@H](CCC(=O)O)NC(=O)[C@H](CC(C)C)NC(=O)[C@H](Cc1ccc(O)cc1)NC(=O)[C@H](CCCNC(=N)N)NC(=O)[C@H](CO)NC(=O)[C@H](Cc1ccc(O)cc1)NC(=O)[C@H](CC(=O)O)NC(=O)[C@H](CO)NC(=O)[C@@H](NC(=O)[C@H](Cc1ccccc1)NC(=O)[C@@H](NC(=O)CNC(=O)[C@H](Cc1c[nH]cn1)NC(=O)C1(NC(=O)CCc2c[nH]cn2)CCC1)[C@@H](C)O)[C@@H](C)O)C(=O)N[C@@H](C)C(=O)N[C@@H](Cc1c[nH]c2ccccc12)C(=O)N[C@@H](CC(C)C)C(=O)N[C@@H](CC(C)C)C(=O)N[C@@H](CCCNC(=N)N)C(=O)N[C@@H](CCCCNC(=O)CC[C@H](NC(=O)COCCOCCNC(=O)CC[C@H](NC(=O)COCCOCCNC(=O)CC[C@H](NC(=O)COCCOCCNC(=O)CC[C@H](NC(=O)CC[C@H](NC(=O)CCCCCCCCCCCCCCCCC(=O)O)C(=O)O)C(=O)O)C(=O)O)C(=O)O)C(=O)O)C(N)=O [Example 22, N^ε35-[(4S)-4-carboxy-4-[[2-[2-[2-[[(4S)-4-carboxy-4-[[2-[2-[2-[[(4S)-4-carboxy-4-[[2-[2-[2-[[(4S)-4-carboxy-4-[[(4S)-4-carboxy-4-(17-carboxyheptadecanoylamino)butanoyl]amino]butanoyl]amino]ethoxy]ethoxy]acetyl]amino]butanoyl]amino]ethoxy]ethoxy]acetyl]amino]butanoyl]amino]ethoxy]ethoxy]acetyl]amino]butanoyl]-[Imp7,Acb8,His9,Tyr16,Arg18,Glu22,Arg26,Leu33,Arg34,Lys35]-GLP-1-(7-35)-peptide amide] (Desaminohistidyl-[Ac4c]HGTFTSDYSRYLEEQAAREFIAWLLRK([γGlu-AEEA-γGlu-AEEA-γGlu-AEEA-γGlu-γGlu-C18 diacid])-NH2) |
| 11.10 | 8.49 | CC[C@H](C)[C@H](NC(=O)[C@H](Cc1ccccc1)NC(=O)[C@H](CCC(=O)O)NC(=O)[C@H](CCCNC(=N)N)NC(=O)[C@H](C)NC(=O)[C@H](C)NC(=O)[C@H](CCC(N)=O)NC(=O)[C@H](CCC(=O)O)NC(=O)[C@H](CCC(=O)O)NC(=O)[C@H](CC(C)C)NC(=O)[C@H](Cc1ccc(O)cc1)NC(=O)[C@H](CCCNC(=N)N)NC(=O)[C@H](CO)NC(=O)[C@@H](NC(=O)[C@H](CC(=O)O)NC(=O)[C@H](CO)NC(=O)[C@@H](NC(=O)[C@H](Cc1ccccc1)NC(=O)[C@@H](NC(=O)CNC(=O)[C@H](Cc1c[nH]cn1)NC(=O)CNC(=O)CCc1c[nH]cn1)[C@@H](C)O)[C@@H](C)O)C(C)C)C(=O)N[C@@H](C)C(=O)N[C@@H](Cc1c[nH]c2ccccc12)C(=O)N[C@@H](CC(C)C)C(=O)N[C@@H](CC(C)C)C(=O)N[C@@H](CCCCNC(=O)CNC(=O)[C@H](CO)NC(=O)[C@H](CCC(=O)O)NC(=O)CNC(=O)[C@H](CO)NC(=O)CC[C@H](NC(=O)CC[C@H](NC(=O)CCCCCCCCCCCCCCCCC(=O)O)C(=O)O)C(=O)O)C(=O)N[C@H](C(N)=O)[C@@H](C)O [Example 37, N^ε34-[2-[[(2S)-2-[[(2S)-4-carboxy-2-[[2-[[(2S)-2-[[(4S)-4-carboxy-4-[[(4S)-4-carboxy-4-(17-carboxyheptadecanoylamino)butanoyl]amino]butanoyl]amino]-3-hydroxypropanoyl]amino]acetyl]amino]butanoyl]amino]-3-hydroxypropanoyl]amino]acetyl]-[Imp7,Gly8,His9,Arg18,Glu22,Arg26,Leu33,Thr35]-GLP-1-(7-35)-peptide amide] (I: Desaminohistidyl-GHGTFTSDVSRYLEEQAAREFIAWLLKT-NH2 / II: {C18 diacid-γGlu-γGlu}-SGESG; amide I:27-II:C) |
